Test results: US5159069A, “Sulfated tannins and their salts” (Yamanouchi Pharmaceutical Co., Ltd., priority 1988, dated 1992)

Assays:
[1] = system: HTLV-IIIB-infected MT-4 cells; assay: Inhibitory effect on expression of HIV-specific antigen (immunofluorescence); format: cell-based
Protocol: After drying the cells cultured in Experiment 1 on a slide glass, they were fixed with methanol for 3 minutes and treated with human anti-HIV-III positive serum (IF antibody titer×4096) which was diluted 1/1,000 time at 37° C. for 30 minutes. Thereafter, it was washed with phosphate-buffered saline (PBS) for 15 minutes and treated with an anti-human IgG conjugated with fluorescein-isothiocyanate at 37° C. for 30 minutes. It was again washed with PBS and then the number of fluorescent cells, more specifically expressed HIV-specific virus antigen proteins were determined with a fluorescence microscope. "%" is a ratio of the number of fluorescent ray emitting cells to the number of total cells.

[2] = system: HTLV-IIIB-non-infected MT-4 cells; assay: Toxicity: influence on the proliferation of T cells; format: cell-based, human
Protocol: (§1) HTLV-IIIB-infected MT-4 cells were inoculated on RPMI 1640 culture mediums containing 10% heat-inactivated fetal calf serum, 100 IU/ml of penicillin and 100 μg/ml of streptomycin, to which tannic acid-S had been added in a variety of concentrations, in a cell number of 300,000/ml and were cultured at 37° C. in a carbon dioxide incubator. After the cultivation for three days, one half of the culture medium was withdrawn and the survival rate and the viable count (X 10^4 /ml) of the MT-4 cells in the medium were determined by a trypan blue dye exclusion test. To the remaining cultured cells, an equivalent amount of RPMI 1640 culture medium each containing the same amount of the drugs were added, the cultivation was further continued for additional 3 days and likewise the survival rate and the viable count were determined.
As in Experiment 1, there was observed the influence of the compounds (drugs) of the present invention on the proliferation of HTLV-IIIB-non-infected MT-4 cells. The results thus observed are listed on the following Tables XI to XIV. The numerical values in these Tables mean viable count (X 10^4 /ml) and those in parentheses mean survival rates.

[3] = system: MOLT-4 and MOLT-4/HIV HTLV-IIIB cells; assay: Inhibitory effect on giant cell formation by mixed cultivation of MOLT-4 and MOLT-4/HIV HTLV-IIIB cells; format: cell-based, human; details: 24 hours co-culture, co-culture control 18.5%
Protocol: This experiment was performed by the recently developed method of Yamamoto et al. (see Yamamoto et al., Virology, 1988, 164, p. 542; and J. Clinical Microbiology, 1988, 26, p. 1229).
MOLT-4 cells which are HTLV-I negative human T cell strain, and MOLT-4/HIVHT LV II IB cells which are persistently HIV-infected cells are separately cultured in a RPMI 1640 culture medium supplemented with 10% fetal calf serum to a cell density of 5×10^5 /ml respectively, these were mixed in a ratio of 1:1 and the drug was added thereto.
The mixed culture medium was cultured at 37° C. for 24 hours in a carbon dioxide incubator and the distribution of cell size was determined by a Cell Multisizer (available from Coulter Electronics, Ltd., Luton, England).
In Table IX, the rate of cell having a size of not less than 20 μm is expressed by "%". If MOLT-4 cells and MOLT-4/HIVHT LV II IB cells are separately cultured, the rates are 4.5 and 3.3% respectively, but it increased up to 18.5% when they are co-cultured. When tannic acid-S was added to the mixed culture medium in a concentration of 5 μg/ml, the rate was reduced to 8.2%.

[4] = system: HTLV-IIIB-infected MT-4 cells; assay: Inhibitory effect of drugs on HIV-induced cell damage (trypan blue dye exclusion); format: cell-based
Protocol: In this experiment, there were used human MT4 cells, a human T4-positive cell line carrying adult T-cell leukemia causative virus, HTLV-1 (Gann Monogr.,1982, Vol. 28, pp. 219 -228) and HTLF-IIIB which is one of the HIV strains.
as §1

[5] = system: avian myeloblastosis virus RTase; format: biochemical; details: 37° C., 40 minutes
Protocol: According to the method disclosed in Journal of Biological Chemistry, 1987, 262, p. 2187, the RTase inhibitory effect of the compounds of this invention is determined as follows:
More specifically, the compound of the present invention was added, in various amount, to a reaction solution which comprised 80 mM of Tris buffer solution (pH 8), 6 mM of magnesium chloride, 80 mM of potassium chloride, 10 mM of dithiothreitol, 20 μg/ml of polyadenylic acid, 0.02 μg/ml of oligodeoxy thymidine, 20 μM of tritium-labeled deoxythymidine-triphosphate and avian myeloblastosis virus RTase so that the total volume of the resultant solution was equal to 100 μl. After the reaction solution was incubated at 37° C. for 40 minutes, 100 μl of an ice-cooled 10% trichloroacetic acid solution was added to the solution to stop the reaction.
The reaction solution was filtered through a glass filter (Whatmann GF/C) and washed with a 10% trichloroacetic acid solution and then with ethanol. Thereafter, the glass filter was dried and examined by liquid scintillation counter.

[6] = Stability of powder and aqueous solution; details: powder state and aqueous solution
[7] = drug 50 μg/ml, culture period 3 days
[8] = drug 50 μg/ml, culture period 6 days
[9] = drug 100 μg/ml, culture period 3 days
[10] = drug 100 μg/ml, culture period 6 days
[11] = drug 200 μg/ml, culture period 3 days
[12] = drug 200 μg/ml, culture period 6 days
[13] = drug 400 μg/ml, culture period 3 days
[14] = drug 400 μg/ml, culture period 6 days

Substance: sodium salt of ellagic acid sulfate [Ellagic acid-S]
- Ratio of fluorescent ray emitting cells to total cells [1, 7]: < 1%
- Ratio of fluorescent ray emitting cells to total cells [1, 8]: 90%
- Ratio of fluorescent ray emitting cells to total cells [1, 9]: < 1%
- Ratio of fluorescent ray emitting cells to total cells [1, 10]: 6.4%
- Ratio of fluorescent ray emitting cells to total cells [1, 11]: < 1%
- Ratio of fluorescent ray emitting cells to total cells [1, 12]: < 1%
- Ratio of fluorescent ray emitting cells to total cells [1, 13]: 0%
- Ratio of fluorescent ray emitting cells to total cells [1, 14]: < 1%
- Viable count [2, 7]: 700000 mL⁻¹
- survival rate [2, 7]: 84
- Viable count [2, 8]: 1.37e+06 mL⁻¹
- survival rate [2, 8]: 89
- Viable count [2, 9]: 990000 mL⁻¹
- survival rate [2, 9]: 87
- Viable count [2, 10]: 1.09e+06 mL⁻¹
- survival rate [2, 10]: 83
- Viable count [2, 11]: 990000 mL⁻¹
- survival rate [2, 11]: 83
- Viable count [2, 12]: 1.04e+06 mL⁻¹
- survival rate [2, 12]: 85
- Viable count [2, 13]: 810000 mL⁻¹
- survival rate [2, 13]: 84
- Viable count [2, 14]: 700000 mL⁻¹
- survival rate [2, 14]: 82
- Rate of Giant Cell (cells of size not less than 20 μm) ([3]; drug 25 μg/ml): 15.1%
- Rate of Giant Cell (cells of size not less than 20 μm) ([3]; drug 50 μg/ml): 17.0%
- Rate of Giant Cell (cells of size not less than 20 μm) ([3]; drug 100 μg/ml): 13.0%
- Rate of Giant Cell (cells of size not less than 20 μm) ([3]; drug 200 μg/ml): 9.5%
- Viable count [4, 7]: 740000 mL⁻¹
- survival rate [4, 7]: 82%
- Viable count [4, 8]: 230000 mL⁻¹
- survival rate [4, 8]: 43%
- Viable count [4, 9]: 810000 mL⁻¹
- survival rate [4, 9]: 84%
- Viable count [4, 10]: 1.03e+06 mL⁻¹
- survival rate [4, 10]: 78%
- Viable count [4, 11]: 830000 mL⁻¹
- survival rate [4, 11]: 87%
- Viable count [4, 12]: 860000 mL⁻¹
- survival rate [4, 12]: 83%
- Viable count [4, 13]: 730000 mL⁻¹
- survival rate [4, 13]: 82%
- Viable count [4, 14]: 470000 mL⁻¹
- survival rate [4, 14]: 89%

Substance: sodium salt of epicatechin sulfate [Epicatechin-S]
- Ratio of fluorescent ray emitting cells to total cells [1, 7]: < 1%
- Ratio of fluorescent ray emitting cells to total cells [1, 8]: 90%
- Ratio of fluorescent ray emitting cells to total cells [1, 9]: < 1%
- Ratio of fluorescent ray emitting cells to total cells [1, 10]: < 1%
- Ratio of fluorescent ray emitting cells to total cells [1, 11]: < 1%
- Ratio of fluorescent ray emitting cells to total cells [1, 12]: < 1%
- Ratio of fluorescent ray emitting cells to total cells [1, 13]: < 1%
- Ratio of fluorescent ray emitting cells to total cells [1, 14]: < 1%
- Viable count [2, 7]: 1.14e+06 mL⁻¹
- survival rate [2, 7]: 91
- Viable count [2, 8]: 1.38e+06 mL⁻¹
- survival rate [2, 8]: 85
- Viable count [2, 9]: 1.1e+06 mL⁻¹
- survival rate [2, 9]: 86
- Viable count [2, 10]: 1.47e+06 mL⁻¹
- survival rate [2, 10]: 93
- Viable count [2, 11]: 1.11e+06 mL⁻¹
- survival rate [2, 11]: 83
- Viable count [2, 12]: 1.33e+06 mL⁻¹
- survival rate [2, 12]: 92
- Viable count [2, 13]: 1.18e+06 mL⁻¹
- survival rate [2, 13]: 86
- Viable count [2, 14]: 1.37e+06 mL⁻¹
- survival rate [2, 14]: 92
- Rate of Giant Cell (cells of size not less than 20 μm) ([3]; drug 25 μg/ml): 14.2%
- Rate of Giant Cell (cells of size not less than 20 μm) ([3]; drug 50 μg/ml): 14.0%
- Rate of Giant Cell (cells of size not less than 20 μm) ([3]; drug 100 μg/ml): 15.1%
- Rate of Giant Cell (cells of size not less than 20 μm) ([3]; drug 200 μg/ml): 13.9%
- Viable count [4, 7]: 940000 mL⁻¹
- survival rate [4, 7]: 95%
- Viable count [4, 8]: 450000 mL⁻¹
- survival rate [4, 8]: 63%
- Viable count [4, 9]: 990000 mL⁻¹
- survival rate [4, 9]: 87%
- Viable count [4, 10]: 1.1e+06 mL⁻¹
- survival rate [4, 10]: 92%
- Viable count [4, 11]: 890000 mL⁻¹
- survival rate [4, 11]: 86%
- Viable count [4, 12]: 1.22e+06 mL⁻¹
- survival rate [4, 12]: 91%
- Viable count [4, 13]: 910000 mL⁻¹
- survival rate [4, 13]: 85%
- Viable count [4, 14]: 1.33e+06 mL⁻¹
- survival rate [4, 14]: 91%

Substance: sodium salt of sulfated 3,4,5- trigalloylquinic acid [Example 12]
- RTase Inhibitory Effect (IC50) [5]: 9.2 µg/mL

Substance: sodium salt of sulfated (-)-epigallocathechin-3-gallate [Epigallocatechin gallate-S]
- Ratio of fluorescent ray emitting cells to total cells [1, 7]: < 1%
- Ratio of fluorescent ray emitting cells to total cells [1, 8]: < 1%
- Ratio of fluorescent ray emitting cells to total cells [1, 9]: < 1%
- Ratio of fluorescent ray emitting cells to total cells [1, 10]: < 1%
- Ratio of fluorescent ray emitting cells to total cells [1, 11]: < 1%
- Ratio of fluorescent ray emitting cells to total cells [1, 12]: < 1%
- Ratio of fluorescent ray emitting cells to total cells [1, 13]: < 1%
- Ratio of fluorescent ray emitting cells to total cells [1, 14]: < 1%
- Viable count [2, 7]: 1.06e+06 mL⁻¹
- survival rate [2, 7]: 88
- Viable count [2, 8]: 400000 mL⁻¹
- survival rate [2, 8]: 92
- Viable count [2, 9]: 1.14e+06 mL⁻¹
- survival rate [2, 9]: 85
- Viable count [2, 10]: 370000 mL⁻¹
- survival rate [2, 10]: 91
- Viable count [2, 11]: 900000 mL⁻¹
- survival rate [2, 11]: 91
- Viable count [2, 12]: 950000 mL⁻¹
- survival rate [2, 12]: 92
- Viable count [2, 13]: 960000 mL⁻¹
- survival rate [2, 13]: 89
- Viable count [2, 14]: 530000 mL⁻¹
- survival rate [2, 14]: 95
- Rate of Giant Cell (cells of size not less than 20 μm) ([3]; drug 25 μg/ml): 13.8%
- Rate of Giant Cell (cells of size not less than 20 μm) ([3]; drug 50 μg/ml): 17.5%
- Rate of Giant Cell (cells of size not less than 20 μm) ([3]; drug 100 μg/ml): 5.6%
- Rate of Giant Cell (cells of size not less than 20 μm) ([3]; drug 200 μg/ml): 0.4%
- Viable count [4, 7]: 830000 mL⁻¹
- survival rate [4, 7]: 85%
- Viable count [4, 8]: 1.3e+06 mL⁻¹
- survival rate [4, 8]: 92%
- Viable count [4, 9]: 840000 mL⁻¹
- survival rate [4, 9]: 83%
- Viable count [4, 10]: 1.25e+06 mL⁻¹
- survival rate [4, 10]: 95%
- Viable count [4, 11]: 810000 mL⁻¹
- survival rate [4, 11]: 89%
- Viable count [4, 12]: 750000 mL⁻¹
- survival rate [4, 12]: 87%
- Viable count [4, 13]: 720000 mL⁻¹
- survival rate [4, 13]: 82%
- Viable count [4, 14]: 500000 mL⁻¹
- survival rate [4, 14]: 86%
- Stability [6]: stable in powder state and in the form of aqueous solutions

Substance: sodium salt of sulfuric acid ester of 1,2,3,4,6-penta-O-galloyl-β-D-glucose [Example 7]
- RTase Inhibitory Effect (IC50) [5]: 0.45 µg/mL

Substance: sodium salt of sulfuric acid ester of 1,2,3,4,6-penta-O-galloyl-β-D-glucose [Example 9]
- RTase Inhibitory Effect (IC50) [5]: < 0.096 µg/mL
